Reference: PubChem BioAssay AID1259411 (Chemical Carcinogenesis Research Information System (CCRIS), 2018)
Activity calls are given as the source filed them. How the calls were made is not given here.

Tested on: rodent carcinogenicity bioassays, tumor incidence
Experiment: CCRIS carcinogenicity studies
Summary of the method: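 NCI-built, expert-reviewed records of carcinogenicity and related test outcomes (mutagenicity, tumor promotion/inhibition) compiled from published and report sources, historical span 1985-2011, not updated.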

**Q.** With `O=C(O)C(Cl)Cl` as the molecule, how does the carcinogen call (Species: MOUSE, Strain/Sex: B6C3F1/FEMALE, Route: ORAL, Dose: 0, 2, 6.67, 20 MMOL/L IN DRINKING WATER FOR 360 D (STUDY DURATION: 360 D), Dose: 0, 2, 6.67, 20 MMOL/L IN DRINKING WATER FOR 360 D (STUDY DURATION: 360 D), Tumor Site: Type of Lesion: LIVER: ADENOMA) read?
**A.** The carcinogen call was “active; positive”.

**Q.** And the carcinogen call (Species: MOUSE, Strain/Sex: B6C3F1/FEMALE, Route: ORAL, Dose: 0, 2, 6.67, 20 MMOL/L IN DRINKING WATER FOR 576 D (STUDY DURATION: 576 D), Dose: 0, 2, 6.67, 20 MMOL/L IN DRINKING WATER FOR 576 D (STUDY DURATION: 576 D), Tumor Site: Type of Lesion: LIVER: ADENOMA, CARCINOMA)?
**A.** Its carcinogen call is “active; positive”.

**Q.** And the carcinogen call (Species: MOUSE, Strain/Sex: B6C3F1/FEMALE, Route: ORAL, Dose: 0, 2 G/L (TOTAL DOSE) IN DRINKING WATER FOR 52 WK (STUDY DURATION: 52 WK))?
**A.** Its carcinogen call is “inactive; negative”.

**Q.** What about the carcinogen call (Species: MOUSE, Strain/Sex: B6C3F1/FEMALE, Route: ORAL, Dose: 0, 20 MMOL/L IN DRINKING WATER FOR 24 D FOLLOWED BY 48 D WITHOUT EXPOSURE THIS 72-DAY CYCLE REPEATED FOR THE DURATION OF) of the same molecule?
**A.** The carcinogen call was “inactive; negative”.

**Q.** What about the carcinogen call (Species: MOUSE, Strain/Sex: B6C3F1/MALE, Route: ORAL, Dose: 0, 0.5, 1.0, 2, 3.5 G/L IN DRINKING WATER FOR 26 WK (STUDY DURATION: 26 WK), Dose: 0, 0.5, 1.0, 2, 3.5 G/L IN DRINKING WATER FOR 26 WK (STUDY DURATION: 26 WK)) of the same molecule?
**A.** Its carcinogen call is “inactive; negative”.

**Q.** And the carcinogen call (Species: MOUSE, Strain/Sex: B6C3F1/MALE, Route: ORAL, Dose: 0, 0.5, 1.0, 2, 3.5 G/L IN DRINKING WATER FOR 52 WK (STUDY DURATION: 52 WK), Dose: 0, 0.5, 1.0, 2, 3.5 G/L IN DRINKING WATER FOR 52 WK (STUDY DURATION: 52 WK), Tumor Site: Type of Lesion: LIVER: HEPATOCELLULAR ADENOMA OR CARCINOMA)?
**A.** The carcinogen call was “active; positive”.

**Q.** And the carcinogen call (Species: MOUSE, Strain/Sex: B6C3F1/MALE, Route: ORAL, Dose: 0, 0.5, 1.0, 2, 3.5 G/L IN DRINKING WATER FOR 78 WK (STUDY DURATION: 78 WK), Dose: 0, 0.5, 1.0, 2, 3.5 G/L IN DRINKING WATER FOR 78 WK (STUDY DURATION: 78 WK), Tumor Site: Type of Lesion: LIVER: HEPATOCELLULAR ADENOMA OR CARCINOMA)?
**A.** The carcinogen call was “active; positive”.

**Q.** What about the carcinogen call (Species: MOUSE, Strain/Sex: B6C3F1/MALE, Route: ORAL, Dose: 0, 0.5, 1.0, 2, 3.5 G/L IN DRINKING WATER FOR 100 WK (STUDY DURATION: 100 WK), Dose: 0, 0.5, 1.0, 2, 3.5 G/L IN DRINKING WATER FOR 100 WK (STUDY DURATION: 100 WK), Tumor Site: Type of Lesion: LIVER: HEPATOCELLULAR ADENOMA OR CARCINOMA) of the same molecule?
**A.** Its carcinogen call is “active; positive”.

**Q.** And the carcinogen call (Species: MOUSE, Strain/Sex: B6C3F1/MALE, Route: ORAL, Dose: 0, 0.5 G/L DISTILLED DRINKING WATER FOR STUDY DURATION (93 MG/KG/D) (STUDY DURATION: 104 WK), Tumor Site: Type of Lesion: LIVER: HEPATOCELLULAR CARCINOMA, HEPATOCELLULAR ADENOMA)?
**A.** The carcinogen call was “active; positive”.

**Q.** What about the carcinogen call (Species: MOUSE, Strain/Sex: B6C3F1/MALE, Route: ORAL, Dose: 0, 1, 2 G/L IN DRINKING WATER FOR 52 WK (STUDY DURATION: 52 WK), Dose: 0, 1, 2 G/L IN DRINKING WATER FOR 52 WK (STUDY DURATION: 52 WK), Tumor Site: Type of Lesion: LIVER: ADENOMA OR HEPATOCELLULAR CARCINOMA) of the same molecule?
**A.** Its carcinogen call is “active; positive”.

**Q.** And the carcinogen call (Species: MOUSE, Strain/Sex: B6C3F1/MALE, Route: ORAL, Dose: 0, 1 G, 2 G/L (TOTAL DOSE) IN DRINKING WATER FOR 52 WK (STUDY DURATION: 52 WK), Dose: 0, 1 G, 2 G/L (TOTAL DOSE) IN DRINKING WATER FOR 52 WK (STUDY DURATION: 52 WK), Tumor Site: Type of Lesion: LIVER: HEPATOCELLULAR CARCINOMA, ADENOMA, HYPERPLASTIC NODULES)?
**A.** Its carcinogen call is “active; positive”.

**Q.** And the carcinogen call (Species: MOUSE, Strain/Sex: B6C3F1/MALE, Route: ORAL, Dose: 0, 2 G/L (TOTAL DOSE) IN DRINKING WATER FOR 37 WK (STUDY DURATION: 52 WK), Tumor Site: Type of Lesion: LIVER: ADENOMA, HYPERPLASTIC NODULES)?
**A.** Its carcinogen call is “active; positive”.

**Q.** And the carcinogen call (Species: MOUSE, Strain/Sex: B6C3F1/MALE, Route: ORAL, Dose: 0, 5 G/L (0; 39 MILLIMOLAR) IN DRINKING WATER FOR 61 WK (STUDY DURATION: 61 WK), Dose: 0, 5 G/L (0; 39 MILLIMOLAR) IN DRINKING WATER FOR 61 WK (STUDY DURATION: 61 WK), Tumor Site: Type of Lesion: LIVER: CARCINOMA)?
**A.** The carcinogen call was “active; positive”.

**Q.** And the carcinogen call (Species: RAT, Strain/Sex: F344/MALE, Route: ORAL, Dose: 0, 0.05, 0.5 G/L IN DRINKING WATER FOR 100 WK (STUDY DURATION: 100 WK), Dose: 0, 0.05, 0.5 G/L IN DRINKING WATER FOR 100 WK (STUDY DURATION: 100 WK), Tumor Site: Type of Lesion: LIVER: HEPATOCELLULAR ADENOMA OR CARCINOMA)?
**A.** Its carcinogen call is “active; positive”.

**Q.** And the carcinogen call (Species: RAT, Strain/Sex: F344/MALE, Route: ORAL, Dose: 0, 2.5 G/L IN DRINKING WATER DOSE LOWERED TO 1 G/L AFTER 18 WK (STUDY DURATION: 103 WK), Tumor Site: Type of Lesion: LIVER: HEPATOCELLULAR ADENOMA OR CARCINOMA)?
**A.** Its carcinogen call is “active; positive”.

**Q.** For `O=C1CCc2ccccc2O1`, which carcinogen call (Species: MOUSE, Strain/Sex: B6C3F1/FEMALE, Route: GAVAGE, Dose: 0, 200, 400, 800 MG/KG IN CORN OIL 1/D 5 D/WK FOR 103 WK (STUDY DURATION: 103 WK), Dose: 0, 200, 400, 800 MG/KG IN CORN OIL 1/D 5 D/WK FOR 103 WK (STUDY DURATION: 103 WK), Tumor Site: Type of Lesion: LIVER: HEPATOCELLULAR ADENOMA, HEPATOCELLULAR ADENOMA OR CARCINOMA) is on record?
**A.** The carcinogen call was “active; positive”.

**Q.** And the carcinogen call (Species: MOUSE, Strain/Sex: B6C3F1/MALE, Route: GAVAGE, Dose: 0, 200, 400, 800 MG/KG IN CORN OIL 1/D 5 D/WK FOR 103 WK (STUDY DURATION: 103 WK), Dose: 0, 200, 400, 800 MG/KG IN CORN OIL 1/D 5 D/WK FOR 103 WK (STUDY DURATION: 103 WK))?
**A.** The carcinogen call was “inactive; negative”.

**Q.** What about the carcinogen call (Species: RAT, Strain/Sex: F344/FEMALE, Route: GAVAGE, Dose: 0, 150, 300, 600 MG/KG IN CORN OIL 1/D 5 D/WK FOR 103 WK (STUDY DURATION: 103 WK), Dose: 0, 150, 300, 600 MG/KG IN CORN OIL 1/D 5 D/WK FOR 103 WK (STUDY DURATION: 103 WK)) of the same molecule?
**A.** The carcinogen call was “inactive; negative”.

**Q.** What about the carcinogen call (Species: RAT, Strain/Sex: F344/MALE, Route: GAVAGE, Dose: 0, 150, 300, 600 MG/KG IN CORN OIL 1/D 5 D/WK FOR 103 WK (STUDY DURATION: 103 WK), Dose: 0, 150, 300, 600 MG/KG IN CORN OIL 1/D 5 D/WK FOR 103 WK (STUDY DURATION: 103 WK), Tumor Site: Type of Lesion: KIDNEY (RENAL TUBULE): ADENOMA) of the same molecule?
**A.** Its carcinogen call is “active; positive”.

**Q.** For `CNc1ccc(N=Nc2ccccc2)cc1`, which carcinogen call (Species: MOUSE, Strain/Sex: B6C3F1/FEMALE, Route: INTRAPERITONEAL, Dose: 0, 0.3 UMOL/G IN TRIOCTANOIN ONCE ON DAY 1 FOLLOWED BY 0.4 UMOL/G ONCE ON DAY 8, 15 AND 22 (STUDY DURATION: 10 MO)) is on record?
**A.** Its carcinogen call is “inactive; negative”.

**Q.** And the carcinogen call (Species: MOUSE, Strain/Sex: B6C3F1/MALE, Route: INTRAPERITONEAL, Dose: 0, 0.017, 0.05, 0.15, 0.45 UMOL/G ONCE IN TRIOCTANOIN (STUDY DURATION: 10 MO), Dose: 0, 0.017, 0.05, 0.15, 0.45 UMOL/G ONCE IN TRIOCTANOIN (STUDY DURATION: 10 MO), Tumor Site: Type of Lesion: LIVER: HEPATOMA)?
**A.** The carcinogen call was “active; positive”.

**Q.** And the carcinogen call (Species: MOUSE, Strain/Sex: B6C3F1/MALE, Route: INTRAPERITONEAL, Dose: 0, 0.3 UMOL/G IN TRIOCTANOIN ONCE ON DAY 1 FOLLOWED BY 0.4 UMOL/G ONCE ON DAY 8, 15 AND 22 (STUDY DURATION: 10 MO), Tumor Site: Type of Lesion: LIVER: HEPATOMA)?
**A.** Its carcinogen call is “active; positive”.

**Q.** And the carcinogen call (Species: MOUSE, Strain/Sex: C3H/MALE, Route: INTRAPERITONEAL, Dose: 0, 0.45 UMOL/G ONCE IN TRIOCTANOIN (STUDY DURATION: 11 MO), Tumor Site: Type of Lesion: LIVER: HEPATOMA)?
**A.** The carcinogen call was “active; positive”.

**Q.** What about the carcinogen call (Species: MOUSE, Strain/Sex: C57BL/MALE, Route: INTRAPERITONEAL, Dose: 0, 0.45 UMOL/G ONCE IN TRIOCTANOIN (STUDY DURATION: 11 MO), Tumor Site: Type of Lesion: LIVER: HEPATOMA) of the same molecule?
**A.** Its carcinogen call is “active; positive”.

**Q.** And the carcinogen call (Species: RAT, Strain/Sex: F344/MALE, Route: INTRAPERITONEAL, Dose: 0, 0.3 UMOL/G IN TRIOCTANOIN ONCE ON DAY 1 FOLLOWED BY 0.4 UMOL/G ONCE ON DAY 8, 15 AND 22 (STUDY DURATION: 24 MO), Tumor Site: Type of Lesion: LIVER: HEPTOCELLULAR CARCINOMA)?
**A.** The carcinogen call was “active; positive”.

**Q.** What about the carcinogen call (Species: RAT, Strain/Sex: SHERMAN, Route: ORAL, Dose: 0.056% IN DIET FOR 132 TO 250 D, Tumor Site: Type of Lesion: LIVER: HEPATOMA) of the same molecule?
**A.** Its carcinogen call is “active; positive”.

**Q.** What about the carcinogen call (Species: RAT, Strain/Sex: SPRAGUE-DAWLEY/MALE, Route: ORAL, Dose: 0.056% IN DIET FOR 4 MO, Tumor Site: Type of Lesion: LIVER: HEPATOMA) of the same molecule?
**A.** Its carcinogen call is “active; positive”.
